Source: publication PMC8110993, “Structure and antimicrobial activity of NCR169, a nodule-specific cysteine-rich peptide of Medicago truncatula” (Scientific Reports, 2021)
Read-outs that look alike come from different tables or passages of the source. Where a SMILES comes first, the peptide text is derived from it. Bridges are numbered along the chain shown (N, C = ends). Where no end group is shown, it is not given here.

What was measured:
Escherichia coli K-12 = type: cell-based; conditions: for IC100: E. coli K-12, drop plate method, 2 h treatment at room temperature, 5 mM HEPES-KOH pH 7.0
Protocol: (§1) Antimicrobial tests were performed using the drop plate method[12],[47]. Bacterial strains in the logarithmic phase (OD600 = 0.5–0.8) were diluted with 5 mM HEPES–KOH (pH 7.0) to a bacterial culture value of 1 × 10^6 CFU/mL. At OD600 = 0.1, the concentrations of S. meliloti and E. coli K-12 cells were 6.4 × 10^6 CFU/mL and 5.2 × 10^7 CFU/mL, respectively. Equal volumes of bacteria (S. meliloti or E. coli K-12) and NCR169 peptide or PMB were mixed and incubated at room temperature for 2 h. For antimicrobial tests against S. meliloti, 10 μL of each serially diluted mixture was spotted on MHB plates with 2.5 mM MgCl2, and 2.5 mM CaCl2, followed by incubation at 30 °C for 40 h. For antimicrobial tests against E. coli K-12, 10 μL of each mixture was spotted on Mueller Hinton Broth (MHB; MilliporeSigma, Burlington, MA, USA) plates followed by incubation at 30 °C for 13 h.
(§2) To estimate survival rate, the peptide-treated bacterial mixtures were serially diluted with the buffer before spotting on the plate. Bacterial survival rates were calculated using the colony numbers of each bacterial strain with or without peptide treatment. All experiments were repeated at least four times.
(§3) Supplementary Table S2. Antimicrobial activities of NCR169 peptides against E. coliK-12 and S. meliloti.
(§4) Peptide IC50 (μM)* IC100 (μM)
(§5) E. coli K-12 S. meliloti E. coli K-12 S. meliloti
(§6) IC50: 50% inhibitory concentration (Calculated using “Dose-response curve” fitting)

Sinorhizobium meliloti = type: cell-based; conditions: for IC100: drop plate method, 2 h treatment at room temperature, 5 mM HEPES-KOH pH 7.0
Protocol: as §1, §2, §3, §4, §5, §6

[1] = type: physicochemical
Protocol: To confirm it, we examined the solubility of NCR169 in various solvents, HEPES (salt-free), HEPES with salt (50 to 200 mM NaCl or KCl), and PBS. […] In other words, the disulfide bonds of NCR169 contribute to its solubility.
Supplementary Figure S3. Solubility assessment of NCR169. The same amount of NCR169 was dissolved in various solvents. After incubation at room temperature for 1 h, the solution was centrifuged at 20,000 × g and the supernatant was analyzed by Tricine-SDS-PAGE. […]

[2] = Liposome sedimentation (binding) assay; conditions: peptide 20 μM, 2 mM DMPC liposomes, 20 mM HEPES, 150 mM NaCl, pH 7.0, 30 min room temperature, 200,000×g, supernatant and pellet by Tricine-SDS-PAGE
Protocol: (§7) Figure 3 NCR169 binds to the bacterial phospholipid. (A) Circular dichroism (CD) spectra of NCR169 peptides (NCR169-ox1 and -ox2). NCR169 peptides (20 μM) were dissolved in the following solvents: water (No additives), 2 mM DMPC liposomes, 2 mM DMPG liposomes or 30% 2,2,2-trifluoroethanol (TFE). (B) The results of liposome binding assays. The NCR169 peptide (20 μM) was incubated with buffer (No lipid), 2 mM DMPC liposomes, or 2 mM DMPG liposomes. After incubation at room temperature for 30 min, the mixture was ultra-centrifuged at 200,000×g. The supernatant and pellet fractions were analyzed by Tricine-SDS-PAGE. The no lipid sample before ultra-centrifugation was used as the input.
(§8) The phospholipids DMPC and DMPG were purchased from Avanti Polar Lipids (Alabaster, AL, USA). An appropriate amount of phospholipid was dissolved in chloroform and dried under vacuum for 1 h. The lipid film was suspended in water, vortexed, and sonicated for 30 min to form the liposomes.
The assay was carried out as described previously. Briefly, equal volumes of NCR169 peptide (20 μM) and liposomes (2 mM) were mixed in assay buffer (20 mM HEPES, 150 mM NaCl, pH 7.0) and incubated for 30 min at room temperature, followed by ultracentrifugation at 200,000×g for 15 min at 20 °C. […] The supernatant and pellet fractions were subjected to Tricine-SDS-PAGE, and peptides were detected by Coomassie Brilliant Blue staining.

[3] = type: physicochemical; conditions: pH 2.2
Protocol: We further measured the circular dichroism (CD) spectra of NCR169-ox1 and -ox2 under various pH conditions to confirm their structural stability against pH (Supplementary Fig. S4). […] Because acidic pH is preferable for amide proton detection in NMR experiments, we performed the following solution NMR study at lower pH.
CD spectra were recorded within a wavelength range of 270–195 nm using a JASCO J-820 spectropolarimeter (JASCO International Co., Ltd., Tokyo, Japan). A quartz cell with a light path length of 1 mm was used for the measurements. The sample temperature was maintained at 25 °C during the measurements.
Supplementary Figure S4. Circular dichroism (CD) spectra of NCR169-ox1 and -ox2 under
various pH conditions. The signal reflectingβ-sheet structure (218 nm) was hardly changed.

[4] = Liposome sedimentation (binding) assay
Protocol: as §7, §8
The assay was carried out as described previously. Briefly, equal volumes of NCR169 peptide (20 μM) and liposomes (2 mM) were mixed in assay buffer (20 mM HEPES, 150 mM NaCl, pH 7.0) and incubated for 30 min at room temperature, followed by ultracentrifugation at 200,000×g for 15 min at 20 °C. After centrifugation, the supernatant was collected, and the pellet was dissolved in the same volume of assay buffer containing 0.2% Triton X-100. The supernatant and pellet fractions were subjected to Tricine-SDS-PAGE, and peptides were detected by Coomassie Brilliant Blue staining.
Supplementary Figure S11. NCR 169 M binds to the bacterial phospholipid. (A) Circular dichroism (CD) spectra of NCR169M (20 μM) in water (No additive), 2 mM dimyristoylphosphatidylcholine (DMPC) liposomes, 2 mM dimyristoylphosphatidylglycerol (DMPG) liposomes or 30% 2,2,2-trifluoroethanol (TFE). (B) The result of liposome binding assay. NCR169M (20 μM) was incubated with buffer (No lipid),2 mM DMPC liposomes, or 2 mM DMPG liposomes . After incubation at room temperature for 30 min, the mixture was ultra-centrifuged at 200,000 × g. The supernatant and pellet fractions were analyzed by Tricine-SDS-PAGE. The no lipidsample before ultra-centrifugation was used as the input.
(also on this page, place not known: [θ] (103 deg cm2 dmol-1) markerkDa input No lipid sup ppt sup ppt sup ppt NCR169M lipid), DMPC 2 DMPG liposomes. lipid sample)
(1 picture or pasted object on this page, not shown here)
Supplementary Figure S12. The results of liposome binding assays. (A) NCR169-derived peptide (10 μM) was incubated with buffer (No lipid), 1 mM DMPC liposomes, 1 mM DMPG liposomes. After incubation at room temperature for 30 min, the mixture was ultra-centrifuged at 200,000 × g. The supernatant and pellet fractions were analyzed by Tricine-SDS-PAGE. The no lipid sample before ultra-centrifugation was used as the input. Arrows indicate weak bands. (B) […]

[5] = peptide 20 μM, 2 mM DMPG liposomes, 20 mM HEPES, 150 mM NaCl, pH 7.0, 30 min room temperature, 200,000×g, supernatant and pellet by Tricine-SDS-PAGE
[6] = NCR169-derived peptide 10 μM, 1 mM DMPG liposomes, 30 min room temperature, 200,000×g, Tricine-SDS-PAGE

Row | Molecule | IC50 (Escherichia coli K-12; E. coli K-12, 1 × 10^6 CFU/mL in 5 mM HEPES-KOH pH 7.0, 2 h at room temperature, spotted on MHB plates, 30 °C 13 h, survival rate from colony numbers, dose-response curve fitting, repeated at least four times, read-out: IC50 (50% inhibitory concentration)) [nM] | IC100 (Escherichia coli K-12) [µM] | IC50 (Sinorhizobium meliloti; S. meliloti, 1 × 10^6 CFU/mL in 5 mM HEPES-KOH pH 7.0, 2 h at room temperature, spotted on MHB plates with 2.5 mM MgCl2 and 2.5 mM CaCl2, 30 °C 40 h, dose-response curve fitting, repeated at least four times, read-out: IC50 (50% inhibitory concentration)) [nM] | IC100 (Sinorhizobium meliloti; S. meliloti) [µM] | Solubility in various solvents [1] | IC50 (Escherichia coli K-12; K-12, 2 h, pH 7) [nM] | IC50 (Sinorhizobium meliloti; 2 h, pH 7) [nM] | Binding to DMPC liposomes [2] | Structural stability against pH (CD spectra) [3] | Binding to DMPG liposomes [4, 5] | Antimicrobial activity (in words) (Escherichia coli K-12; E. coli K-12, various peptide concentrations) | Antimicrobial activity (in words) (Sinorhizobium meliloti; S. meliloti, various peptide concentrations) | Binding to DMPG liposomes [4, 6]
1 | Polymyxin B [PMB, reference compound] | 18 | 0.031 | 92 | 0.25 |  |  |  |  |  |  |  |  | 
2 | CC[C@H](C)[C@@H]1NC(=O)CNC(=O)[C@@H](NC(=O)[C@H](Cc2ccc(O)cc2)NC(=O)[C@H](CCCCN)NC(=O)[C@@H](NC(=O)[C@H](Cc2c[nH]cn2)NC(=O)CNC(=O)[C@@H](NC(=O)[C@H](CC(=O)O)NC(=O)[C@H](CCC(=O)O)NC(=O)CN)[C@@H](C)CC)[C@@H](C)CC)CSSC[C@@H]2NC(=O)[C@H](CCCCN)NC(=O)[C@H](Cc3c[nH]c4ccccc34)NC(=O)[C@H]([C@@H](C)CC)NC(=O)[C@H](CCCCN)NC(=O)[C@H](Cc3ccccc3)NC(=O)[C@H](CC(C)C)NC(=O)[C@@H]3CCCN3C(=O)[C@H](CCCCN)NC(=O)[C@H](CCCCN)NC(=O)[C@H](CO)NC(=O)[C@H](CCCCN)NC(=O)[C@H](Cc3ccc(O)cc3)NC(=O)[C@H](CSSC[C@@H](C(=O)N[C@H](C(=O)N[C@@H](CC(C)C)C(=O)N[C@@H](Cc3c[nH]c4ccccc34)C(=O)N[C@@H](Cc3ccc(O)cc3)C(=O)N[C@@H](CCCCN)C(=O)O)C(C)C)NC(=O)[C@H](C(C)C)NC(=O)[C@H](CC(N)=O)NC(=O)[C@H](CCC(=O)O)NC(=O)[C@H](C(C)C)NC2=O)NC(=O)[C@H](CC(=O)O)NC(=O)[C@H](CC(=O)O)NC(=O)[C@H](C(C)C)NC1=O [NCR169-ox2] (H-GEDIGHIKYCGIVDDCYKSKKPLFKIWKCVENVCVLWYK-OH; disulfide 10-29, 16-34) |  | 16 |  | 128 | soluble in all conditions | 3400 | 9800 | Neither NCR169-ox1 nor -ox2 bound | retained their conformations under acidic and neutral conditions | hardly binds |  |  | 
3 | CC[C@H](C)[C@@H]1NC(=O)CNC(=O)[C@@H](NC(=O)[C@H](Cc2ccc(O)cc2)NC(=O)[C@H](CCCCN)NC(=O)[C@@H](NC(=O)[C@H](Cc2c[nH]cn2)NC(=O)CNC(=O)[C@@H](NC(=O)[C@H](CC(=O)O)NC(=O)[C@H](CCC(=O)O)NC(=O)CN)[C@@H](C)CC)[C@@H](C)CC)CSSC[C@@H](C(=O)N[C@@H](Cc2ccc(O)cc2)C(=O)O)NC(=O)[C@H](CC(=O)O)NC(=O)[C@H](CC(=O)O)NC(=O)[C@H](C(C)C)NC1=O [NCR169N-ox] (H-GEDIGHIKYCGIVDDCY-OH; disulfide 10-16) |  | > 128 |  | > 128 |  |  |  |  |  |  | no antimicrobial activity | no antimicrobial activity | did not
4 | YKSKKPLFKIWK [NCR169M] |  | 0.5 |  | 2 |  | 83 | 240 |  |  | bound to DMPG liposomes |  |  | 
5 | CC[C@H](C)[C@H](NC(=O)[C@H](CCCCN)NC(=O)[C@H](Cc1ccccc1)NC(=O)[C@H](CC(C)C)NC(=O)[C@@H]1CCCN1C(=O)[C@H](CCCCN)NC(=O)[C@H](CCCCN)NC(=O)[C@H](CO)NC(=O)[C@H](CCCCN)NC(=O)[C@H](Cc1ccc(O)cc1)NC(=O)CN)C(=O)N[C@@H](Cc1c[nH]c2ccccc12)C(=O)N[C@@H](CCCCN)C(=O)N[C@H]1CSSC[C@@H](C(=O)N[C@H](C(=O)N[C@@H](CC(C)C)C(=O)N[C@@H](Cc2c[nH]c3ccccc23)C(=O)N[C@@H](Cc2ccc(O)cc2)C(=O)N[C@@H](CCCCN)C(=O)O)C(C)C)NC(=O)[C@H](C(C)C)NC(=O)[C@H](CC(N)=O)NC(=O)[C@H](CCC(=O)O)NC(=O)[C@H](C(C)C)NC1=O [NCR169CL-ox] (H-GYKSKKPLFKIWKCVENVCVLWYK-OH; disulfide 14-19) |  | 0.5 |  | > 128 |  | 140 | 570 |  |  |  |  |  | bound to DMPG liposomes
6 | CC[C@H](C)[C@H](NC(=O)[C@H](CCCCN)NC(=O)CN)C(=O)N[C@@H](Cc1c[nH]c2ccccc12)C(=O)N[C@@H](CCCCN)C(=O)N[C@H]1CSSC[C@@H](C(=O)N[C@H](C(=O)N[C@@H](CC(C)C)C(=O)N[C@@H](Cc2c[nH]c3ccccc23)C(=O)N[C@@H](Cc2ccc(O)cc2)C(=O)N[C@@H](CCCCN)C(=O)O)C(C)C)NC(=O)[C@H](C(C)C)NC(=O)[C@H](CC(N)=O)NC(=O)[C@H](CCC(=O)O)NC(=O)[C@H](C(C)C)NC1=O [NCR169CS-ox] (H-GKIWKCVENVCVLWYK-OH; disulfide 6-11) |  | 64 |  | > 128 |  | 5600 | 45000 |  |  |  |  |  | bound to DMPG liposomes
